The values that follow come from patent US20110263693A1, “CELASTROL, GEDUNIN, AND DERIVATIVES THEREOF AS HSP90 INHIBITORS” (DANA-FARBER CANCER INSTITUTE, INC., priority 2006, published 2011).

Assay [1] concerns celastrol signature. As to the kind of experiment: Connectivity Map query with the celastrol signature. The assay is classed as cell-based, human. Also on record: key to celastrol score (connectivity score): connectivity score, based on Kolmogorov-Smirnov statistic. The conditions noted are these: for celastrol score (connectivity score): enrichment of the celastrol signature (1.25 μM celastrol at 6 h, LNCaP) in the compound's Connectivity Map profiles, 6 hr treatment; for celastrol rank: rank by celastrol score among 164 Connectivity Map compounds. The text has this:
(§1) Indeed, a major challenge in cell-based chemical biology and chemical genomics is the identification of compounds' targets (Gardner et al., 2003). We hypothesized that gene expression signatures could be used to identify compound action based on the similarity of such compound-induced signatures to signatures of existing drugs of known mechanism. We therefore employed a collection of gene expression profiles of drug-treated cell lines that was developed in our lab, termed the Connectivity Map (Lamb et al., 2006). This database comprises 453 genome-wide Affymetrix expression profiles derived from the treatment of human cell lines with 164 small molecules, primarily FDA-approved drugs. A 6 hr treatment time was chosen in an attempt to capture the primary, and potentially mechanistic, effects of the compounds rather than the downstream phenotypic consequences.
(§2) In order to use the Connectivity Map to gain insight into celastrol and gedunin function, we first defined a gene expression signature of celastrol and gedunin activity. The expression signatures of celastrol and gedunin were derived by expression profiling of RNA from LNCaP cells treated with celastrol (1.25 μM), gedunin (20 μM), and vehicle (DMSO) for 6 hr; signatures were defined using comparative marker selection to identify transcripts that distinguished between the compound- and vehicle-treated profiles by the signal-to-noise (SNR) metric. The enrichment of these signatures in the gene expression profiles of the Connectivity Map database was then assessed using a gene enrichment metric, the connectivity score, based on the Kolmogorov-Smirnov statistic (Lamb et al., 2003).
(§3) The celastrol and gedunin signatures were developed from RMA-processed microarray data from LNCaP cells treated with 1.25 μM celastrol or 20 μM gedunin for 6 hours. Comparative marker selection was used to identify markers that distinguished celastrol- and/or gedunin-treated samples from vehicle-treated samples by the median SNR (Golub et al., 1999). The top 50 markers that increased and decreased relative to vehicle-treated controls were used as the signatures.
(§4) The current version of the Connectivity Map data set (build01) contains genome-wide expression data for 453 treatment and vehicle control pairs, representing 164 distinct small molecules. Cell treatments and Affymetrix profiling were predominantly carried out in MCF7 cells with 6 hr treatments as detailed (Table 4) (Lamb et al., 2006). Enrichment of the induced and repressed genes of a signature within each Connectivity Map treatment profile was estimated with a metric based on the Kolmogorov-Smirnov statistic as described (Lamb et al., 2003, Lamb et al., 2006). Connectivity Map data are available at www.broad.mit.edu/cmap/ and GEO (accession number GSE5258).
(§5) For the celastrol and gedunin signatures, RMA-processed data was filtered and thresholded (min fold change=2, min absolute change=50, floor=10, ceiling=16000). Comparative marker selection (GenePattern) was used to identify markers that distinguished celastrol- and/or gedunin-treated samples from vehicle-treated samples by the median SNR. The top fifty markers that increased and decreased relative to vehicle treated controls were used as the celastrol, gedunin, or joint celastrol/gedunin signatures.
(§6) The current version of The Connectivity Map dataset (build01) contains genome-wide expression data for 453 treatment and vehicle control pairs, representing 164 distinct small molecules. Cell treatments were predominantly carried out in the MCF7 cell line for 6 h as detailed in Table 4. Affymetrix profiling was then carried out as described (Lamb et al., 2006).

The subject of assay [2] is gedunin signature. As to the kind of experiment: Connectivity Map query with the gedunin signature. The conditions noted are these: for gedunin score (connectivity score): enrichment of the gedunin signature (20 μM gedunin at 6 hours, LNCaP) in the compound's Connectivity Map profiles, 6 hr treatment; for gedunin rank: rank by gedunin score among 164 Connectivity Map compounds. Also on record: key to gedunin score (connectivity score): connectivity score, based on Kolmogorov-Smirnov statistic. Format: cell-based, human.
Description: as §1, §2, §3, §4, §5, §6

For the compound `CCCCCCCCCCCCCCCC(=O)N[C@H](CN1CCOCC1)[C@H](O)c1ccccc1` (racemic) [DL-PPMP], in assay [1], the “celastrol score (connectivity score)” value came out at 0 and the celastrol rank was 138. In assay [2], the “gedunin score (connectivity score)” value stood at 0 and the gedunin rank was 110.
Consider `CC/C(=C(\c1ccccc1)c1ccc(OCCN(C)C)cc1)c1ccccc1` [tamoxifen], for which, in assay [1], the “celastrol score (connectivity score)” value stood at 0. Also, in assay [2], the “gedunin score (connectivity score)” value is 0.216.
For the compound `C=C[C@@]1(C)CC(=O)[C@]2(O)[C@@]3(C)[C@@H](O)CCC(C)(C)[C@@H]3[C@H](O)[C@H](OC(C)=O)[C@@]2(C)O1` [colforsin], the “celastrol score (connectivity score)” value in assay [1] was determined as 0. Also, the “gedunin score (connectivity score)” value in assay [2] is recorded as 0.
Turning to BW-B70C, in assay [1], the “celastrol score (connectivity score)” value amounted to 0.719 and the celastrol rank came to 10. In addition, in assay [2], the “gedunin score (connectivity score)” value amounted to 0.557 and the gedunin rank was 12.
Turning to `[H]/N=C(/N)N/C(=N/[H])NCCc1ccccc1` [phenformin], in assay [1], the “celastrol score (connectivity score)” value was determined as 0.355. Further, the “gedunin score (connectivity score)” value in assay [2] is 0.
As to `NC(=O)c1cccc(N)c1` [3-aminobenzamide], the “celastrol score (connectivity score)” value in assay [1] is given as −0.587. The “gedunin score (connectivity score)” value in assay [2] is 0.
The like results for `Cc1ccc(N(CC2=NCCN2)c2cccc(O)c2)cc1` [phentolamine] were, in that order, 0 and 0.
The like results for `O=C(CCCCCCC(=O)Nc1ccccc1)NO` [vorinostat] were, in that order, 0 and 0.554.
For `O=C(O)CCc1nc(-c2ccccc2)c(-c2ccccc2)o1` [oxaprozin], the “celastrol score (connectivity score)” value in assay [1] worked out at 0.445. Also, the “gedunin score (connectivity score)” value in assay [2] is given as 0.562.
The like results for `C=CC[C@@H]1/C=C(\C)C[C@H](C)C[C@H](OC)[C@H]2O[C@@](O)(C(=O)C(=O)N3CCCC[C@H]3C(=O)O[C@H](/C(C)=C/[C@@H]3CC[C@@H](O)[C@H](OC)C3)[C@H](C)[C@@H](O)CC1=O)[C@H](C)C[C@@H]2OC` [tacrolimus] were, in that order, 0 and 0.
For butirosin, in assay [1], the “celastrol score (connectivity score)” value amounted to 0 and the celastrol rank was 132. In assay [2], the “gedunin score (connectivity score)” value is listed as −0.55 and the gedunin rank is recorded as 162.
`CCCCNC(=O)NS(=O)(=O)c1ccc(C)cc1` [tolbutamide]: the “celastrol score (connectivity score)” value in assay [1] is reported as 0.497. The “gedunin score (connectivity score)” value in assay [2] is 0.
The like results for `CC(=O)Oc1ccccc1C(=O)O` [acetylsalicylic acid] were, in that order, 0.154 and 0.
`CC/C=C\C/C=C\C/C=C\C/C=C\C/C=C\C/C=C\CCC(=O)OCC` [docosahexaenoic acid ethyl ester]: in assay [1], the “celastrol score (connectivity score)” value is on record as 0.572 and the celastrol rank was 14. Besides, in assay [2], the “gedunin score (connectivity score)” value was determined as 0.493 and the gedunin rank was 21.
`N=C1C=CC(=C(c2ccc(N)cc2)c2ccc(N)cc2)C=C1` [pararosaniline]: the “celastrol score (connectivity score)” value in assay [1] turned out to be 0.579. Further, the “gedunin score (connectivity score)” value in assay [2] was 0.496.
On to `CC(/C=C/C(=O)NO)=C\[C@@H](C)C(=O)c1ccc(N(C)C)cc1` [trichostatin A], for which, in assay [1], the “celastrol score (connectivity score)” value was −0.02 and the celastrol rank is 141. In assay [2], the “gedunin score (connectivity score)” value is on record as 0.427 and the gedunin rank is listed as 29.
Turning to `O=c1[nH]c2ccccc2c2ccccc12` [phenanthridinone], in assay [1], the “celastrol score (connectivity score)” value was 0.429 and the celastrol rank is recorded as 32. In assay [2], the “gedunin score (connectivity score)” value is on record as −1 and the gedunin rank was found to be 164.
For `NC(=O)N1c2ccccc2C=Cc2ccccc21` [carbamazepine], the “celastrol score (connectivity score)” value in assay [1] was 0.339. For the same compound, the “gedunin score (connectivity score)” value in assay [2] worked out at 0.407.
For `Clc1ccc(C(c2ccc(Cl)cc2)n2cc[n+](CC(OCc3ccc(Cl)cc3Cl)c3ccc(Cl)cc3Cl)c2)cc1` (stereo not shown) [calmidazolium], in assay [1], the “celastrol score (connectivity score)” value turned out to be 0.334. The “gedunin score (connectivity score)” value in assay [2] came to 0.619.
As for `Cc1nc2c(O)cccc2c(=O)[nH]1` [NU-1025], in assay [1], the “celastrol score (connectivity score)” value is on record as −0.362 and the celastrol rank worked out at 156. Besides, in assay [2], the “gedunin score (connectivity score)” value is listed as −0.222 and the gedunin rank was 152.
As to `NCCc1ccc(O)c(O)c1` [dopamine], the “celastrol score (connectivity score)” value in assay [1] is −0.596. The “gedunin score (connectivity score)” value in assay [2] is listed as 0.
Consider `COc1cc2ncnc(Nc3cccc(Cl)c3)c2cc1OC` [tyrphostin AG-1478], for which, in assay [1], the “celastrol score (connectivity score)” value came to 0 and the celastrol rank is 127. Moreover, in assay [2], the “gedunin score (connectivity score)” value was determined as 0.529 and the gedunin rank is reported as 14.
Turning to `C[C@@H](N)[C@H]1CC[C@H](C(=O)Nc2ccncc2)CC1` [Y-27632], in assay [1], the “celastrol score (connectivity score)” value is 0. The “gedunin score (connectivity score)” value in assay [2] is −0.353.
As for `C=C1C[C@@H]2[C@H](CC[C@]3(C)C(=O)CC[C@@H]23)[C@@]2(C)C=CC(=O)C=C12` [exemestane], the “celastrol score (connectivity score)” value in assay [1] came out at 0.427. For the same compound, the “gedunin score (connectivity score)” value in assay [2] is 0.
Take `O=c1c(O)c(-c2ccc(O)c(O)c2)oc2cc(O)cc(O)c12` [quercetin]: in assay [1], the “celastrol score (connectivity score)” value is −0.111. For the same compound, the “gedunin score (connectivity score)” value in assay [2] is on record as −0.431.
The like results for `CCOC(=O)C(C)(C)Oc1ccc(Cl)cc1` [clofibrate] were, in that order, 0 and 0.
Take `CCCC(=O)Nc1ncnc2c1ncn2[C@@H]1O[C@@H]2COP(=O)(O)O[C@H]2[C@H]1OC(=O)CCC` [bucladesine]: the “celastrol score (connectivity score)” value in assay [1] is recorded as 0. Also, the “gedunin score (connectivity score)” value in assay [2] is given as −0.144.
As to `NC(=O)C(=O)O` [oxamic acid], in assay [1], the “celastrol score (connectivity score)” value is −0.654. In addition, the “gedunin score (connectivity score)” value in assay [2] was 0.
On to `CC[C@@]1([C@@H]2O[C@@H]([C@H]3O[C@@](O)(CO)[C@H](C)C[C@@H]3C)C[C@@H]2C)CC[C@H]([C@]2(C)CC[C@]3(C[C@H](O)[C@@H](C)[C@@H]([C@@H](C)[C@@H](OC)[C@H](C)C(=O)O)O3)O2)O1` [monensin], for which the “celastrol score (connectivity score)” value in assay [1] was determined as 0.454. Moreover, in assay [2], the “gedunin score (connectivity score)” value came to 0.
On to `[Cl][Co][Cl]` [cobalt chloride], for which, in assay [1], the “celastrol score (connectivity score)” value was found to be 0.269 and the celastrol rank was found to be 48. Besides, in assay [2], the “gedunin score (connectivity score)” value worked out at 0.1 and the gedunin rank amounted to 72.
For the compound `Cc1c(C)c2c(c(C)c1O)CCC(C)(COc1ccc(CC3SC(=O)NC3=O)cc1)O2` (stereo not shown) [troglitazone], in assay [1], the “celastrol score (connectivity score)” value is recorded as 0.42. For the same compound, the “gedunin score (connectivity score)” value in assay [2] came out at 0.167.
The like results for `NCCNCCNCCNCCN` [tetraethylenepentamine] were, in that order, −0.039 and −0.092.
For `O=CC[C@@H](O)[C@H](O)[C@H](O)CO` [2-deoxy-D-glucose], the “celastrol score (connectivity score)” value in assay [1] was 0. Moreover, in assay [2], the “gedunin score (connectivity score)” value is 0.378.
As to `CN1CCN(CCCN2c3ccccc3Sc3ccc(C(F)(F)F)cc32)CC1` [trifluoperazine, reference compound], the “gedunin score (connectivity score)” value in assay [2] is 0.559.
